Measurements taken from patent publication US20250009745A1, “CDK INHIBITOR” (SHANGHAI QILU PHARMACEUTICAL RESEARCH AND DEVELOPMENT …, priority 2021, published 2025).
Read-outs that look alike come from different tables or passages of the source.

Key:
Test in all cases: CDK enzymology experiment in vitro, capillary mobility shift assay (MSA)
Assay type in all cases: biochemical
CDK6 = molecular target: T1, CDK6 (Homo sapiens, UniProt Q00534)
T1 construct: purchased Carna Company
Method: CDK1/CDK2/CDK4/CDK6/CDK7/CDK9 were purchased from Carna Company; Carliper substrate CTD3/substrate 18/substrate 8 were purchased from Gil Biochemical Company; Dinaciclib/Palbociclib were purchased from Selleckchem Company; DMSO was purchased from Sigma Company; 384-well plates were purchased from Corning Company.
• (1) Preparation of 1×Kinase buffer. • (2) Preparation of compound concentration gradient: Test concentration of the test compound was started at 1 μM, 10 μM or 30 μM, 3-fold dilution, 10 concentrations, detected in duplicate. […] Liquid handler Echo 550 was used to transfer 250 nL of 100-fold final concentration of the compound to the target plate 384-well plate. […] The 384-well plate was centrifuged at 1000 rpm for 30 seconds, and shaken to mix uniformly. • (10) The conversion rate was read with Caliper EZ Reader.
Where, conversion %_sample is the readings of conversion rate of the sample; conversion %_min: the average value of negative control wells, representing the readings of conversion rate of wells without enzyme activity; conversion %_max: the average value of positive control wells, representing the readings of conversion rate of wells without compound inhibition.
Taking the log value of the concentration as the X-axis, and the percentage inhibition rate as the Y-axis, the dose-effect curve was fitted using the log(inhibitor) vs. response—Variable slope of the analysis software GraphPad Prism 5 so as to obtain the IC50 value of each compound on the enzyme activity.
Y=Bottom+(Top−Bottom)/(1+10^((Log IC50−X)*HillSlope)). Calculation formula: […]

CDK4 = molecular target: T2, CDK4 (Homo sapiens, UniProt P11802); conditions: read-out: CDK4 (nM) inhibitory IC50
T2 construct: purchased Carna Company
T2 sequence (P11802 whole entry): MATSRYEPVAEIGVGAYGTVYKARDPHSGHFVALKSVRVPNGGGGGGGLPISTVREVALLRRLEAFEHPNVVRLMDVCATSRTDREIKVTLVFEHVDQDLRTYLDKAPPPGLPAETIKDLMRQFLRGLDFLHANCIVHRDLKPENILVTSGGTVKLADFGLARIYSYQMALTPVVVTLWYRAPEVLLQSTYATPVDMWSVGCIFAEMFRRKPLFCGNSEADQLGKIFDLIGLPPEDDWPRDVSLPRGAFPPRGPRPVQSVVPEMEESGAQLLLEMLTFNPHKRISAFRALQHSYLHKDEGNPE
T2 sequence (P30281 whole entry partner): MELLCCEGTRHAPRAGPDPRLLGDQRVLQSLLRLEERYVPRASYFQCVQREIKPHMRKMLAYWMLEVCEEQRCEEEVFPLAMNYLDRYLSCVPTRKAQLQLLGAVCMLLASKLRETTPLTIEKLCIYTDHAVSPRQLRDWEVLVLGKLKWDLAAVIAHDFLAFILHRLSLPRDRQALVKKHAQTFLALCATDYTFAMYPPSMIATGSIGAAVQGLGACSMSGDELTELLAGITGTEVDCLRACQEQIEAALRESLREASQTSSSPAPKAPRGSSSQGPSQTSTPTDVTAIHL
Summary of the method: (§1)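 Recombinant kinases tested against peptide substrates in 1× kinase buffer, with compound added as a 100-fold DMSO stock. Top concentration 1, 10 or 30 μM, 3-fold dilutions over 10 points, in duplicate. Substrate conversion read by Caliper EZ Reader, normalised to no-enzyme and no-compound controls, and IC50 fitted with a variable-slope log(inhibitor)–response model.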

CDK2 = molecular target: T3, CDK2 (Homo sapiens, UniProt P24941); conditions: read-out: CDK2 (nM) inhibitory IC50
T3 construct: purchased Carna Company
Summary of the method: as §1

CDK1 = molecular target: T4, CDK1 (Homo sapiens, UniProt P06493); conditions: read-out: CDK1 (nM) inhibitory IC50
T4 construct: purchased Carna Company
T4 sequence (P06493 whole entry): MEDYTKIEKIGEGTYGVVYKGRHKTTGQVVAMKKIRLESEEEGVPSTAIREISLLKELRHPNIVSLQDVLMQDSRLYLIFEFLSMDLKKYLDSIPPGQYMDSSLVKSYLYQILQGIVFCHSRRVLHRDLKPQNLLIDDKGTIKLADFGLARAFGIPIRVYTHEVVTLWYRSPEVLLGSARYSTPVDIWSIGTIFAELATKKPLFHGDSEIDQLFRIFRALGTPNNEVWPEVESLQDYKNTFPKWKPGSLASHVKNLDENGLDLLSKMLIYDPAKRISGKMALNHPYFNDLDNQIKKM
T4 sequence (P14635 whole entry partner): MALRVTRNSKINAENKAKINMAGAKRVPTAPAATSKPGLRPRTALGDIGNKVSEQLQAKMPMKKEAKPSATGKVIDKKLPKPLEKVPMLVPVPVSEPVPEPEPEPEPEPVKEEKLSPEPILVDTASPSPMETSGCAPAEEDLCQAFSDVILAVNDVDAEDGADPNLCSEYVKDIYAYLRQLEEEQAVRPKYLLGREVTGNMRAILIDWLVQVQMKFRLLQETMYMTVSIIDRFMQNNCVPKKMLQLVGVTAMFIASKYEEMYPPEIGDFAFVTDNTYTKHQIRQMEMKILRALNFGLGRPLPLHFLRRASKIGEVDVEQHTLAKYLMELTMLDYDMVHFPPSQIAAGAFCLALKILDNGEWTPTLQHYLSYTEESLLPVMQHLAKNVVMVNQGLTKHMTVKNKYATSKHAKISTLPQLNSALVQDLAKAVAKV
Summary of the method: as §1

[1] = read-out: CDK6 (nM) inhibitory IC50

T1 sequence (Q00534 whole entry): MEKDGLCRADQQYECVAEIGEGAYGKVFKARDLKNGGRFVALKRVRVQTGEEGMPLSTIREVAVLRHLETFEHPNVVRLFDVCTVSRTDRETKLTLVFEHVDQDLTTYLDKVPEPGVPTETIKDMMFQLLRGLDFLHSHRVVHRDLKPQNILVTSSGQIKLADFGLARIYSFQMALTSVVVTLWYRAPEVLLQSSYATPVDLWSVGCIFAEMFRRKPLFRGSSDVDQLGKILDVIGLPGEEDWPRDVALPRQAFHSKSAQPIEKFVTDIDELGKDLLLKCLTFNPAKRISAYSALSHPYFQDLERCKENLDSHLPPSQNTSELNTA
T1 sequence (P30281 whole entry partner): as the sequence (P30281 whole entry partner) above

Compound | IC50 (CDK6; [1]) | IC50 (CDK4) | IC50 (CDK2) | IC50 (CDK1) | IC50 (CDK6)
Cn1cc(S(=O)(=O)N2CCC(Nc3ncc(C#N)c(N[C@H]4CC[C@@H](O)C4)n3)CC2)cn1 (racemic) [Example 11] | 10 to 50 nM | 10 to 50 nM | 0.5 to 2.5 nM | 10 to 50 nM | 
CC(C)Nc1nc(NC2CCN(S(C)(=O)=O)CC2)ncc1C#N [Compound 28] | 50 to 100 nM | 50 to 100 nM | 10 to 50 nM | 100 to 1000 nM | 
Cn1cc(S(=O)(=O)N2CCC(Nc3ncc(C(F)(F)F)c(NC4CCCC4)n3)CC2)cn1 [Compound 32] | 10 to 50 nM | 10 to 50 nM | 0.5 to 2.5 nM | 10 to 50 nM | 
Cn1cnc(S(=O)(=O)N2CCC(Nc3ncc(C(F)(F)F)c(NC4CCCC4)n3)CC2)c1 [Compound 35] | 50 to 100 nM | 10 to 50 nM | 0.5 to 2.5 nM | 10 to 50 nM | 
Cn1cc(S(=O)(=O)N2CCC(Nc3ncc(C#N)c(N[C@@H]4CCC[C@H]4O)n3)CC2)cn1 [Compound 45] | 100 to 1000 nM | 10 to 50 nM | 2.5 to 10 nM | 10 to 50 nM | 
Cn1cc(-c2ccc(S(=O)(=O)N3CCC(Nc4ncc(C#N)c(NC5CCCC5)n4)CC3)cc2)cn1 [Compound 49] | 0.5 to 2.5 nM | 2.5 to 10 nM | 0.5 to 2.5 nM | 10 to 50 nM | 
O=S(=O)(c1ccc(N2CC3CC(C2)N3)nc1)N1CCC(Nc2ncc(C(F)(F)F)c(O[C@H]3CCOC3)n2)CC1 [Compound 180] | 0.5 to 2.5 nM | 0.5 to 2.5 nM | < 0.5 nM |  | 
O=S(=O)(c1ccc(N2CC3CCC(C2)N3)cc1)N1CCC(Nc2ncc(C(F)(F)F)c(O[C@H]3CCOC3)n2)CC1 [Compound 181] |  | 0.5 to 2.5 nM | < 0.5 nM |  | 0.5 to 2.5 nM
O=S(=O)(c1ccc(N2CC3CCC(C2)N3)nc1)N1CCC(Nc2ncc(C(F)(F)F)c(O[C@H]3CCOC3)n2)CC1 [Compound 182] | 0.5 to 2.5 nM | 0.5 to 2.5 nM | < 0.5 nM |  | 
O=S(=O)(c1ccc(N2C3CCC2CNC3)nc1)N1CCC(Nc2ncc(C(F)(F)F)c(O[C@H]3CCOC3)n2)CC1 [Compound 183] | 0.5 to 2.5 nM | 0.5 to 2.5 nM | < 0.5 nM |  | 
O=S(=O)(c1ccc(N2C3CNCC2C3)nc1)N1CCC(Nc2ncc(C(F)(F)F)c(O[C@H]3CCOC3)n2)CC1 [Compound 189] | 0.5 to 2.5 nM | 0.5 to 2.5 nM | < 0.5 nM |  | 
O=S(=O)(c1ccc(C2CCCNC2)c(F)c1)N1CCC(Nc2ncc(C(F)(F)F)c(O[C@H]3CCOC3)n2)CC1 (some centres unmarked) [Compound 193] | 0.5 to 2.5 nM | 0.5 to 2.5 nM | < 0.5 nM |  | 
O=S(=O)(c1ccc(N2C3CCC2CNC3)cc1)N1CCC(Nc2ncc(C(F)(F)F)c(O[C@H]3CCOC3)n2)CC1 [Compound 195] | 0.5 to 2.5 nM | 0.5 to 2.5 nM | < 0.5 nM |  | 
CS(=O)(=O)N1CCC(Nc2ncc(C#N)c(NC3CCCC3)n2)CC1 [Example 1] | 10 to 50 nM | 10 to 50 nM | 10 to 50 nM | 100 to 1000 nM | 
CS(=O)(=O)N1CCC(Nc2cc(NC3CCCC3)c(C#N)cn2)CC1 [Example 2] | 10 to 50 nM | 10 to 50 nM | 10 to 50 nM | 100 to 1000 nM | 
Cn1cc(S(=O)(=O)N2CCC(Nc3ncc(C#N)c(OC4CCCC4)n3)CC2)cn1 [Example 6, 4-(Cyclopentyloxy)-2-((1-((1-methyl-1H-pyrazol-4-yl)sulfonyl)piperidin-4-yl)amino)pyrimidine-5-carbonitrile] | 0.5 to 2.5 nM | 2.5 to 10 nM | < 0.5 nM |  | 
CN1CC=C(c2ccc(S(=O)(=O)N3CCC(Nc4ncc(C#N)c(NC5CCCC5)n4)CC3)cc2)CC1 [Example 16, 4-(Cyclopentylamino)-2-((1-((4-(1-methyl-1,2,3,6-tetrahydropyridin-4-yl)phenyl)sulfonyl)piperidin-4-yl)amino)pyrimidine-5-carbonitrile] | 0.5 to 2.5 nM | 0.5 to 2.5 nM | 0.5 to 2.5 nM |  | 
CN1CCC(c2ccc(S(=O)(=O)N3CCC(Nc4ncc(C#N)c(NC5CCCC5)n4)CC3)cc2)CC1 [Example 17, 4-(Cyclopentylamino)-2-((1-((4-(1-methylpiperidin-4-yl)phenyl)sulfonyl)piperidin-4-yl)amino)pyrimidine-5-carbonitrile] | 0.5 to 2.5 nM | 0.5 to 2.5 nM | 0.5 to 2.5 nM |  | 
CN1CCN(c2ccc(S(=O)(=O)N3CCC(Nc4ncc(C#N)c(NC5CCCC5)n4)CC3)cc2)CC1 [Example 18, 4-(Cyclopentylamino)-2-((1-((4-(4-methylpiperazin-1-yl)phenyl)sulfonyl)piperidin-4-yl)amino)pyrimidine-5-carbonitrile] | 0.5 to 2.5 nM | 0.5 to 2.5 nM | 0.5 to 2.5 nM |  | 

Now from value to molecule, other results behind:

IC50 (CDK6; [1]) | IC50 (CDK4) | IC50 (CDK2) | IC50 (CDK1) | Compound | IC50 (CDK6)
10 to 50 nM | 2.5 to 10 nM | < 0.5 nM |  | O=S(=O)(c1cccc(N2CCNCC2)c1)N1CCC(Nc2ncc(C(F)(F)F)c(O[C@H]3CCOC3)n2)CC1 [Compound 184] | 
0.5 to 2.5 nM | 0.5 to 2.5 nM | < 0.5 nM |  | C[C@@H]1CN(c2ccc(S(=O)(=O)N3CCC(Nc4ncc(C(F)(F)F)c(O[C@H]5CCOC5)n4)CC3)cc2)CCN1 [Compound 185] | 
0.5 to 2.5 nM | 0.5 to 2.5 nM | < 0.5 nM |  | C[C@H]1CN(c2ccc(S(=O)(=O)N3CCC(Nc4ncc(C(F)(F)F)c(O[C@H]5CCOC5)n4)CC3)cc2)CCN1 [Compound 186] | 
0.5 to 2.5 nM | 0.5 to 2.5 nM | < 0.5 nM |  | C[C@@H]1CN(c2ccc(S(=O)(=O)N3CCC(Nc4ncc(C(F)(F)F)c(O[C@H]5CCOC5)n4)CC3)cn2)CCN1 [Compound 187] | 
0.5 to 2.5 nM | 0.5 to 2.5 nM | < 0.5 nM |  | C[C@H]1CN(c2ccc(S(=O)(=O)N3CCC(Nc4ncc(C(F)(F)F)c(O[C@H]5CCOC5)n4)CC3)cn2)CCN1 [Compound 188] | 
0.5 to 2.5 nM | 0.5 to 2.5 nM | < 0.5 nM |  | O=S(=O)(c1ccc(N2CC3CNCC3C2)nc1)N1CCC(Nc2ncc(C(F)(F)F)c(O[C@H]3CCOC3)n2)CC1 (some centres unmarked) [Compound 190] | 
0.5 to 2.5 nM | 0.5 to 2.5 nM | < 0.5 nM |  | O=S(=O)(c1ccc(N2CC3CNCC3C2)cc1)N1CCC(Nc2ncc(C(F)(F)F)c(O[C@H]3CCOC3)n2)CC1 (some centres unmarked) [Compound 191] | 
0.5 to 2.5 nM | 0.5 to 2.5 nM | < 0.5 nM |  | Cc1cc(S(=O)(=O)N2CCC(Nc3ncc(C(F)(F)F)c(O[C@H]4CCOC4)n3)CC2)ccc1C1CCCNC1 (some centres unmarked) [Compound 192] | 
0.5 to 2.5 nM | 0.5 to 2.5 nM | 0.5 to 2.5 nM |  | COc1cc(S(=O)(=O)N2CCC(Nc3ncc(C(F)(F)F)c(O[C@H]4CCOC4)n3)CC2)ccc1C1=CCNCC1 [Compound 194] | 
0.5 to 2.5 nM | 0.5 to 2.5 nM | < 0.5 nM |  | Cc1cc(S(=O)(=O)N2CCC(Nc3ncc(C(F)(F)F)c(O[C@H]4CCOC4)n3)CC2)ccc1C1=CCCNC1 [Compound 196] | 
0.5 to 2.5 nM | 0.5 to 2.5 nM | 0.5 to 2.5 nM |  | C[C@H]1CNCCN1c1ccc(S(=O)(=O)N2CCC(Nc3ncc(C(F)(F)F)c(O[C@H]4CCOC4)n3)CC2)cc1 [Compound 198] | 
0.5 to 2.5 nM | < 0.5 nM | < 0.5 nM |  | CN1CC=C(c2ccc(S(=O)(=O)N3CCC(Nc4ncc(C(F)(F)F)c(O[C@H]5CCOC5)n4)CC3)cc2)CC1 [Compound 203] | 
0.5 to 2.5 nM | 0.5 to 2.5 nM | < 0.5 nM |  | CN1CCN(c2ccc(S(=O)(=O)N3CCC(Nc4ncc(C(F)(F)F)c(O[C@H]5CCOC5)n4)CC3)cc2)CC1 [Compound 204] | 
0.5 to 2.5 nM | 2.5 to 10 nM | 0.5 to 2.5 nM |  | C[C@@H]1CN(c2ccc(S(=O)(=O)N3CCC(Nc4ncc(C(F)(F)F)c(O[C@H]5CCOC5)n4)CC3)cn2)C[C@@H](C)N1 [Compound 207] | 
0.5 to 2.5 nM | 2.5 to 10 nM | 0.5 to 2.5 nM |  | C[C@@H]1CN(c2ccc(S(=O)(=O)N3CCC(Nc4ncc(C(F)(F)F)c(O[C@H]5CCOC5)n4)CC3)cc2)C[C@@H](C)N1 [Compound 208] | 
2.5 to 10 nM | 10 to 50 nM | 0.5 to 2.5 nM |  | C[C@@H]1CN(c2ccc(S(=O)(=O)N3CCC(Nc4ncc(C(F)(F)F)c(O[C@@H]5CCOC5)n4)CC3)cc2)C[C@H](C)N1 [Compound 210] | 
0.5 to 2.5 nM | 0.5 to 2.5 nM | 0.5 to 2.5 nM |  | O=S(=O)(c1ccc(C2CCCNC2)cc1)N1CCC(Nc2ncc(C(F)(F)F)c(O[C@H]3CCOC3)n2)CC1 (stereo partly drawn) [Example 113, N-(1-((4-(Piperidin-3-yl)phenyl)sulfonyl)piperidin-4-yl)-4-(((S)-tetrahydrofuran-3-yl)oxy)-5-(trifluoromethyl)pyrimidin-2-amine] | 
0.5 to 2.5 nM | 0.5 to 2.5 nM | < 0.5 nM |  | C[C@@H]1CN(c2ccc(S(=O)(=O)N3CCC(Nc4ncc(C(F)(F)F)c(O[C@H]5CCOC5)n4)CC3)cc2)C[C@H](C)N1 [Example 169] | 
